Experimental data from BindingDB's records for patent US20230382915 (Deciphera Pharmaceuticals, 2023).

What was measured:
[1] = target: T1, Eukaryotic translation initiation factor 2-alpha kinase 3 (Homo sapiens, UniProt Q9NZJ5); assay: Biochemical Assay for PERK
T1 sequence (Q9NZJ5 whole entry): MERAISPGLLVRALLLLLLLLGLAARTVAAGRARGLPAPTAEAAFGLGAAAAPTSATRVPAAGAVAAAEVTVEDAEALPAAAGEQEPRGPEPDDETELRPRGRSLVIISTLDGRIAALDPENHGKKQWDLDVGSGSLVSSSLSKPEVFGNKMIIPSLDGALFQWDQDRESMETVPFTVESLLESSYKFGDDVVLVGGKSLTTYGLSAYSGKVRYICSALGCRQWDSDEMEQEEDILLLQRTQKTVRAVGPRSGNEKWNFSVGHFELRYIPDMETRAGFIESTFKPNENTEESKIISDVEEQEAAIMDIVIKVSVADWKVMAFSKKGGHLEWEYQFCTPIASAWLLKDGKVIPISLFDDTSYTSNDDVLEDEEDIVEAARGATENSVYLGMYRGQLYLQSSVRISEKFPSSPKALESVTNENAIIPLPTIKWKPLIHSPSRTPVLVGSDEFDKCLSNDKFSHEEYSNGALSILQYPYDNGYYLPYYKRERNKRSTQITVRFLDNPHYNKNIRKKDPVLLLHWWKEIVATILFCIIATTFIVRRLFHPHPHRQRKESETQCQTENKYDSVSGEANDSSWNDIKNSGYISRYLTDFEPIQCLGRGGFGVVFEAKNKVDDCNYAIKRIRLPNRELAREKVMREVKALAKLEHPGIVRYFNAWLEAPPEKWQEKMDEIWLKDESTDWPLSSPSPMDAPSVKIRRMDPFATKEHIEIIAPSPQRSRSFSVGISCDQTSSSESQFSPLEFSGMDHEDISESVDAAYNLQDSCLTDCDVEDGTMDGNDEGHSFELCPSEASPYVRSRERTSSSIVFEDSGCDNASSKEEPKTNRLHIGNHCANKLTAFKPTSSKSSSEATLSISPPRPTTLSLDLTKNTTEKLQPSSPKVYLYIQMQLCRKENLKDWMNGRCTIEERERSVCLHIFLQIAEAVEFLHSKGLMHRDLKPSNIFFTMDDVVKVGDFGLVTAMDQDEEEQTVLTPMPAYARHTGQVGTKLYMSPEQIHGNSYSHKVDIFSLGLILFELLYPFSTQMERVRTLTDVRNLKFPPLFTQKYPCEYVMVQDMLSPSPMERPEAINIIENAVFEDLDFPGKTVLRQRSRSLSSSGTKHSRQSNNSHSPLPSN
Method: Activity of PERK kinase was determined spectroscopically using a coupled pyruvate kinase/lactate dehydrogenase assay that continuously monitors the ATP hydrolysis-dependent oxidation of NADH (e.g., Schindler et al. Science (2000) 289: 1938-1942). Assays were conducted in 384-well plates ([…] final volume) using 10 nM PERK (from Beryllium), 0.25 mg/mL Myelin Basic Protein substrate, 1.5 units pyruvate kinase, 2.1 units lactate dehydrogenase, 1 mM phosphoenol pyruvate, 0.28 mM NADH and 1 mM ATP in assay buffer (100 mM Tris, pH 7.5, 15 mM MgCl2, 0.5 mM DTT, 0.004% (w/v) BSA, and 0.004% Triton X-100). Inhibition of PERK was measured by adding serial diluted test compound (final assay concentration of 1% DMSO). A decrease in absorption at 340 nm was monitored continuously for 6 hours at 30° C. on a multi-mode microplate reader (BioTek). The reaction rate was calculated using the 2-3 h time frame. The reaction rate at each concentration of compound was converted to percent inhibition using controls (i.e., reaction with no test compound and reaction with a known inhibitor) and IC50 values were calculated using software routines in Prism (GraphPad software).

eIF-2-alpha kinase GCN2 = eIF-2-alpha kinase GCN2 (Homo sapiens, UniProt Q9P2K8); assay: Biochemical Assay for GCN2
Method: Activity of GCN2 kinase was determined using a TR-FRET kinase activity assay (e.g. Riddle et al. Analytical Biochemistry (2006) 356(1) 108-116). Assays were conducted in 384-well plates (13 μL assay volume) using 2 nM GCN2 (Carna Biosciences), 130 nM GFP-EIf2α (Invitrogen), 0.2 mg/mL E. coli tRNA (sigma) and 1 mM ATP in kinase buffer (Invitrogen). Inhibition of GCN2 was measured by adding serial diluted test compound (final assay concentration of 0.5% DMSO) followed by a 3-hour incubation. Tb-peIF2α (pSer52) antibody (Invitrogen) (2 nM final assay concentration) in kinase buffer containing EDTA (final assay concentration of 20 mM) was added. After a 60 min incubation at room temperature, TR-FRET was monitored using an excitation wavelength of 340 nm and emission wavelengths of 490 nm and 520 nm. The emission ratio (520/490) at each compound concentration of was converted to percent inhibition using controls (i.e., reaction with no test compound and reaction with a known inhibitor) and IC50 values were calculated by fitting a four-parameter sigmoidal curve to the data using Prism (GraphPad software).

eIF-2-alpha kinase GCN2, sequence (Q9P2K8 whole entry): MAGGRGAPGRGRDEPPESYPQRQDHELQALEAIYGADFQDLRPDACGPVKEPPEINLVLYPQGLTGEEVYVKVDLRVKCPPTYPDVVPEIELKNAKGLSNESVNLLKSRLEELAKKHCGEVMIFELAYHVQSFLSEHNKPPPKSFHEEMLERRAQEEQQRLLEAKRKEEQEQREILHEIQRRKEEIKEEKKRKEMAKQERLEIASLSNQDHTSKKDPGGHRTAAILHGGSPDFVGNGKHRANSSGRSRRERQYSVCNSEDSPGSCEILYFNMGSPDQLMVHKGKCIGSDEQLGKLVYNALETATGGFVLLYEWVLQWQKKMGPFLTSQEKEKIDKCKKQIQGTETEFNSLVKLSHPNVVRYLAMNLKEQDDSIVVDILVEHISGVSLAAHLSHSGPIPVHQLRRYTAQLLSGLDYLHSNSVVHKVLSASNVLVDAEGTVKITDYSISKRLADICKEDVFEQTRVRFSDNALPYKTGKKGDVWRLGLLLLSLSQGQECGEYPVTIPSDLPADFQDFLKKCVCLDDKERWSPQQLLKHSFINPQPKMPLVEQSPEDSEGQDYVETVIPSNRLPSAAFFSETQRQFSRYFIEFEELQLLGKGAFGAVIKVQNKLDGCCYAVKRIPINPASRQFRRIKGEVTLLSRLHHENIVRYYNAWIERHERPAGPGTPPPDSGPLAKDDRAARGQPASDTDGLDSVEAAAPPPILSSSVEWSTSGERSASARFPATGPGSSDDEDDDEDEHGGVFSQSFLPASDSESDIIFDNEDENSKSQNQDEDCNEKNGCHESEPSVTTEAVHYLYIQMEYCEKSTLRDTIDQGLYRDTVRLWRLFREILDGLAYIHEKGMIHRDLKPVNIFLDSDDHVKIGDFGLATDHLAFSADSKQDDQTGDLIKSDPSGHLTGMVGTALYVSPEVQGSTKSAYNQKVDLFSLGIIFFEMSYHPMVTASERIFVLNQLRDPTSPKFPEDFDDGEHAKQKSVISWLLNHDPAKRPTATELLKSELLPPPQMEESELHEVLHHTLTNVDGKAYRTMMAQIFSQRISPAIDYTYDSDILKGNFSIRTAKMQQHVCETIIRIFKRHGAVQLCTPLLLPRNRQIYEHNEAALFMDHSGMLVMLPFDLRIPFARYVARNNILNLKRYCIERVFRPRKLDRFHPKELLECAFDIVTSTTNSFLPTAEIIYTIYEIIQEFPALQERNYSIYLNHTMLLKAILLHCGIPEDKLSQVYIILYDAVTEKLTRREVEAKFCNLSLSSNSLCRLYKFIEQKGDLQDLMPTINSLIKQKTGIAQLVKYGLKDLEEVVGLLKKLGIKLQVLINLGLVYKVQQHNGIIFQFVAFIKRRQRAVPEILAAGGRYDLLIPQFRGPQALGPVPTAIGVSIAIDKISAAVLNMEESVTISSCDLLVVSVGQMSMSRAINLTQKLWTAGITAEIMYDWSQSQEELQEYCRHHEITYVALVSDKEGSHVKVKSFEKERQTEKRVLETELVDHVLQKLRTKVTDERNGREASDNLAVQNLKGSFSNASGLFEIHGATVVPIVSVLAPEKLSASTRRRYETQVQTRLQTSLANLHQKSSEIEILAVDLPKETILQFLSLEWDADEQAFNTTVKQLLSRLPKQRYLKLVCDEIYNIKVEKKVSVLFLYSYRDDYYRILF

Nc1nccc2scc(-c3cccc(NS(=O)(=O)c4cc(Cl)cc(CO)c4Cl)c3F)c12 [US20230382915, Example 11]
IC50 [1]: < 100 nM

CN1CCC(n2cc(-c3cccc(NS(=O)(=O)c4cc(Cl)cc(CO)c4Cl)c3F)c3c(N)ncnc32)CC1 [US20230382915, Example 17]
IC50 (eIF-2-alpha kinase GCN2): < 100 nM
IC50 [1]: < 100 nM

Nc1nccc2occ(-c3cccc(NS(=O)(=O)c4cc(Cl)cc(CO)c4Cl)c3F)c12 [US20230382915, Example 12]
IC50 [1]: < 100 nM
